In PubChem BioAssay (NCI) one finds GI50 and TGI data, which are given here for 18 compounds.

Values joined by “and” are separate entries in the source; they are usually repeats but may differ in a detail not shown here. Equal values may be shown once.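 Exposure lasted 48 hours, with cells grown in 96-well plates and compounds tested at five concentrations. GI50 marks 50% less growth. At the TGI there is no net growth.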

Assay in all cases: NCI anticancer screen, dose series, 48 h
The subject of assay [1] is COLO 205 colon.
Assay [2] has as its system DU-145 prostate.
In assay [3] the test system is HCT-15 colon.
Assay [4] concerns HOP-62 NSCLC.
The test system of assay [5] is HT29 colon.
The subject of assay [6] is NCI/ADR-RES ovarian.
In assay [7] the test system is OVCAR-4 ovarian.
In assay [8] the test system is OVCAR-8 ovarian.
For assay [9], the system named is SK-MEL-2 melanoma.
Assay [10] concerns UO-31 renal.

With `C=C1C(=O)O[C@H]2[C@H]1CC/C(CNC(=O)/C=C/c1ccc(Cl)cc1Cl)=C\CC[C@@]1(C)O[C@@H]21`, the GI50 in assay [1] was 1.14 µM; in [2] it was 0.594 µM; in [3], 1.01 µM; in assay [4] it was 1.74 µM; in [5], 0.841 µM; in assay [6], 2.57 µM. In addition, the GI50 was 1.31 µM in [7], 1.37 µM in assay [8], 1.55 µM in assay [9] and 1.03 µM in assay [10]. The TGI in assay [1] is 2.95 µM; in [2], 1.89 µM; in assay [3] it was 2.33 µM; in [4] it was 4.06 µM; in assay [5] it was 2.49 µM; in assay [6] it was 12.8 µM. The TGI in assay [7] was 3.01 µM; in assay [8], 3.44 µM; in [9], 3.63 µM; in assay [10], 2.28 µM.
As to `Oc1ccc(O)c2c1C1(Cl)C(Cl)=C(Cl)C2(Cl)C1(Cl)Cl`, the GI50 in assay [1] was 11.6 µM; in [2], 3.45 µM; in [3], 4.15 µM; in assay [4] it was 8.27 µM; in assay [5], 6.44 µM; in assay [6], 3.03 µM. Moreover, the GI50 in assay [7] is 8.32 µM; in [8], 10.3 µM; in [10], 2.43 µM. The TGI worked out at 25.4 µM in assay [1]; 12.9 µM in [2]; 26.1 µM in assay [3]; 21.2 µM in assay [4]; 17.9 µM in assay [5]; 9.53 µM in assay [6]. Further, the TGI in [7] was more than 100 µM; in assay [8], 36.6 µM; in assay [10], 10.6 µM.
In the case of `Cc1cc(Cl)ccc1Nc1nc(C(F)(F)F)ccc1C(=O)Nc1cccc(C(F)(F)F)c1`, the GI50 in [1] is 2.52 µM; in assay [2], 3.17 µM; in assay [3] it was 2.56 µM; in assay [4], 2.6 µM; in assay [5], 3.07 µM; in assay [6] it was 3.38 µM. In addition, the GI50 in assay [7] was 3.07 µM; in assay [8], 4.32 µM; in [9], 3.23 µM; in [10] it was 3.71 µM. In addition, the TGI amounted to 6.13 µM in [1]; 15.6 µM in assay [2]; 7.35 µM in assay [3]; 11.9 µM in assay [4]; 10.8 µM in [5]; 14.7 µM in assay [6]. The TGI in assay [7] worked out at 11.3 µM; in assay [8], 22.7 µM; in assay [9] it was 13.3 µM; in assay [10], 16 µM.
`NCCSC(C[N+](=O)[O-])c1ccccc1Cl` (stereo not drawn): the GI50 in [1] was 2.14 µM; in assay [2], 1.92 µM; in assay [3] it was 2.21 µM; in [4], 8.09 µM; in assay [5], 3.15 µM; in assay [6], 9.85 µM. In addition, the GI50 is 12.1 µM in assay [7], 6.43 µM in [8], 21.9 µM in [9] and 3.46 µM in assay [10]. The TGI in [1] was 4.35 µM; in [2], 3.62 µM; in assay [3], 5.97 µM; in assay [4], 23.1 µM; in [5] it was 10.9 µM; in assay [6], more than 23.4 µM. For the same compound, the TGI in assay [7] was found to be 30.1 µM; in assay [8] it was 23.8 µM; in assay [9], 51.5 µM; in assay [10] it was 10.1 µM.
With `Cc1ccccc1NC(=O)c1cc2ccccc2cc1O`, the GI50 in assay [1] was 13.8 µM; in [2], 4.03 µM; in assay [3], 3.84 µM; in [4], 2.47 µM; in assay [5], 7.54 µM; in [6], 2.85 µM. Besides, the GI50 in assay [7] was 3.44 µM; in assay [8], 3.46 µM; in assay [9], 3.33 µM; in assay [10] it was 3.54 µM. Further, the TGI is 28.6 µM in assay [1]; more than 100 µM in assay [2]; more than 100 µM in assay [3]; 7.88 µM in assay [4]; more than 100 µM in [5]; 8.79 µM in assay [6]. The TGI in assay [7] was more than 100 µM; in assay [8] it was 59.3 µM; in [9] it was 8.05 µM; in [10], more than 100 µM.
Regarding `O=C1C=C(OCCCl)C(=O)c2c(O)ccc(O)c21`, the GI50 is 0.592 µM in assay [1]; 1.01 µM in assay [2]; 1.4 µM in [3]; 1.97 µM in assay [4]; 1.12 µM in assay [5]; 9.41 µM in [6]. Besides, the results for the GI50 in [8], in [9] and in [10] were 1.59 µM, 2.1 µM and 1.95 µM, respectively. For the same compound, the TGI in assay [1] was 0.338 µM and 1.92 µM; in assay [2] it was 0.746 µM and 2.29 µM; in assay [3], 0.433 µM and 3.15 µM; in assay [4], 1.52 µM and 3.39 µM; in assay [5], 1.03 µM and 2.89 µM; in assay [7], 3.01 µM and 3.1 µM. Also, the TGI in [8] is 5.08 µM and 3.03 µM; in assay [9], 1.4 µM and 4.39 µM; in assay [10] it was 2.76 µM and 4.5 µM.
Turning to `CN(C)N=Nc1nn(C(=O)Nc2ccc(Cc3ccccc3)cc2)c2ccccc12`, the GI50 is 0.77 µM in [1]; more than 100 µM in assay [2]; 0.396 µM in [3]; more than 100 µM in assay [4]; 3.34 µM in [5]; 0.957 µM in [6]. The GI50 in [8] is 4.1 µM; in assay [9], 2.07 µM; in assay [10] it was 3.23 µM. The TGI in [1] is 2.45 µM; in [2], more than 100 µM; in assay [3], more than 100 µM; in assay [4] it was more than 100 µM; in assay [5], more than 100 µM; in assay [6] it was more than 100 µM. Moreover, the TGI in assay [7] was more than 100 µM; in assay [8] it was more than 100 µM; in assay [9], more than 100 µM; in assay [10], more than 79 µM.
As for `Nc1ccccc1C#C/C=C\C#Cc1ccccc1F`, the GI50 in assay [1] was 10.3 µM; in [2], 5.49 µM; in assay [3], 5.17 µM; in assay [4] it was 6.66 µM; in [5], 5.06 µM; in assay [6], 2.47 µM. Moreover, the GI50 in assay [7] was 24.4 µM; in [8] it was 18.5 µM; in [9] it was 17.3 µM; in assay [10], 11.9 µM. Besides, the TGI in [1] is 34.1 µM; in [2] it was 28 µM; in [3], 19.7 µM; in [4], 20.8 µM; in assay [5], 47.6 µM; in [6], 6.73 µM. Also, the TGI in assay [7] was more than 100 µM; in [8], 67.7 µM; in assay [9] it was 47.3 µM; in assay [10] it was 35 µM.
Regarding `Cn1c2ccccc2c2[nH]c3ccccc3c(=O)c21`, the TGI in assay [1], in assay [2], in assay [3], in assay [4], in [5] and in assay [6] was more than 100 µM throughout. Besides, the TGI in [8], in [9] and in assay [10] was more than 100 µM each time.
Regarding `CNc1ncc2cc(Oc3ccc(F)cc3F)c(=O)n(C)c2n1`, the GI50 in [1], in assay [2], in assay [3], in assay [4], in [5] and in assay [6] was more than 25 µM each time. Besides, the GI50 in assay [7], in [8], in assay [9] and in assay [10] was more than 25 µM each time. For the same compound, the TGI in [1], in assay [2], in assay [3], in [4], in assay [5] and in assay [6] was more than 25 µM in each case. Moreover, the TGI in assay [7], in [8], in assay [9] and in assay [10] was more than 25 µM throughout.
In the case of `Nc1cc(-c2ccccc2)n(C(=O)Nc2ccc(Oc3ccccc3)cc2)n1`, the GI50 in [1] was more than 100 µM; in [2] it was more than 100 µM; in assay [3], more than 100 µM; in assay [4] it was 30.2 µM; in assay [5], 19.1 µM; in assay [6], 75.4 µM. The GI50 in assay [7] was 2.91 µM; in assay [8] it was 20.1 µM; in assay [9], more than 100 µM; in [10], 52.5 µM. Also, the TGI in [1], in [2], in assay [3], in assay [4], in assay [5] and in assay [6] was more than 100 µM throughout. The TGI in assay [7] was 27 µM; in assay [8], 57.1 µM; in assay [9], more than 100 µM; in [10], more than 100 µM.
Regarding `CNC(=O)c1cncc(/C=C/c2c(Cl)cccc2Cl)c1`, the GI50 was more than 25 µM in assay [1]; more than 25 µM in assay [2]; more than 22.4 µM in assay [3]; more than 25 µM in assay [4]; 15.1 µM in assay [5]; more than 21.2 µM in assay [6]. The figures for the GI50 in assay [7], in [8] and in assay [10] were 21.9 µM, more than 25 µM and 6.69 µM, respectively. In addition, the TGI in assay [1], in assay [2], in assay [3], in assay [4], in [5] and in assay [6] was more than 25 µM throughout. Besides, the TGI in assay [7], in assay [8] and in assay [10] was more than 25 µM throughout.
As to `O=C(Cn1c2ccccc2c2ccncc21)N/N=C\c1ccc2ccccc2c1`, the GI50 is 25.8 µM in [1]; 23.9 µM in assay [2]; 14.7 µM in assay [3]; 17.3 µM in assay [4]; 21.7 µM in assay [5]; 15.8 µM in assay [6]. Moreover, the GI50 in assay [7] is 15.4 µM; in assay [8], 27.8 µM; in assay [9], 19.2 µM; in assay [10], 13.3 µM. Further, the TGI in assay [1] is more than 100 µM; in assay [2], more than 100 µM; in assay [3] it was more than 100 µM; in assay [4], 39.3 µM; in assay [5] it was 50.3 µM; in assay [6], more than 100 µM. Moreover, the TGI is 80.8 µM in assay [7], more than 100 µM in assay [8], 42 µM in [9] and 45.6 µM in assay [10].
For the compound `CN(C)C(=S)SCC(N)=O`, the TGI in assay [1], in [2], in assay [3], in [4], in assay [5] and in [6] was more than 100 µM throughout. Besides, the TGI in assay [7], in assay [8] and in [9] was more than 100 µM in each case.
With `COc1ccc(OC)c(/C=N/N=C2\C(=O)Nc3c(Cl)cc(Cl)cc32)c1`, the TGI in assay [1] is more than 100 µM; in [3], more than 100 µM; in assay [4] it was 79.4 µM; in assay [5], more than 100 µM; in assay [6], more than 100 µM; in [7] it was more than 100 µM. In addition, the TGI in [8] is more than 100 µM; in assay [9], 68.8 µM; in [10] it was more than 100 µM.
On to `O=C1NC(SCc2ccc(F)cc2)=N/C1=C/c1cccc(OCc2ccc(Cl)cc2)c1`, for which the GI50 in assay [1] was more than 100 µM; in [2] it was more than 100 µM; in [3] it was 55.3 µM; in [5], more than 100 µM; in assay [6] it was 22.2 µM; in assay [7], 2.07 µM. The values for the GI50 in [8] and in assay [9] were 18.8 µM and more than 100 µM, respectively. Besides, the TGI in assay [1] was more than 100 µM; in [2], more than 100 µM; in assay [3], more than 100 µM; in [5] it was more than 100 µM; in assay [6], more than 100 µM; in [7], 4.85 µM. The TGI in [8] and in assay [9] was more than 100 µM in each case.
As for `C=C(C)C(=O)O[C@H]1CC2=CC(CC(C)=C[C@H]3OC(=O)C(=C)C13)OC2=O` (stereo partly drawn), the TGI is 29.3 µM in assay [1]; 30.8 µM in assay [2]; 25.6 µM in assay [3]; 43.2 µM in assay [5]; more than 100 µM in [6]; more than 100 µM in assay [7]. The TGI in [8] is more than 100 µM; in [9], 72.4 µM.
As to `O=C1NC(c2ccccc2)N=C2Oc3ccccc3C=C12` (stereo not drawn), the TGI was more than 100 µM in assay [2]; more than 100 µM in assay [3]; more than 66.7 µM in assay [4]; more than 23.6 µM in [5]; more than 31.3 µM in assay [6]; more than 100 µM in [7]. Besides, the TGI in assay [8], in assay [9] and in [10] was more than 100 µM in each case.
